From US20240010639A1, “TRIAZINE DIONE DERIVATIVE, PREPARATION METHOD THEREFOR AND APPLICATION THEREOF IN MEDICINE” (Jiangsu Hengrui Pharmaceuticals Co., Ltd., priority 2020, published 2024)
Like-named read-outs stand apart in the source and are kept apart here.

Experiment: Toxicokinetic evaluation of 14-day repeated intragastric administration to SD rats
Format: in vivo
Conditions: for half-life at 1 day: Day 1, read-out: Half-life T1/2 (converted); for Cmax at 1 day: Day 1, read-out: Plasma concentration Cmax; for MRT at 1 day: Day 1, read-out: Residence time MRT
Method: With SD rats as test animals, the plasma concentrations of the test compounds and the concentrations of the original forms of the compounds in the administration solutions were measured by LC/MS/MS at different time points after intragastric administration. The toxicokinetic performance of the compound disclosed herein was studied in SD rats and its toxicokinetic profile was evaluated.
24 SD rats, an equal number of males and females, evenly divided into 6 groups of 4, an equal number of males and females in each group, provided by Vital River Laboratory Animal Technology Co., Ltd.
A certain amount of the compound of Example 16 was measured out, and 15% PEG400 and 85% (10% TPGS+1% HPMC K100LV) were added to prepare a pale yellow homogenous suspension.
A certain amount of compound MYK-461 was measured out, and 0.5% MC was added to prepare a colorless clear solution.
The compound of Example 16 was intragastrically administered at doses of 5 mg/kg, 15 mg/kg and 30 mg/kg, at a volume of 10 mL/kg.
Compound MYK-461 was administered at doses of 0.5 mg/kg, 1.5 mg/kg and 3 mg/kg, at a volume of 10 mL/kg.
0.2-mL blood samples were collected from the orbit 0.5 h, 1.0 h, 2.0 h, 4.0 h, 8.0 h and 24.0 h after administration on day 1, and before administration and 0.5 h, 1.0 h, 2.0 h, 4.0 h, 8.0 hi, 24.0 h after administration on day 7 and day 14, placed into EDTA-K2 anticoagulation tubes, and centrifuged at 10,000 rpm for 1 min (4° C.), and plasma was isolated within 1 h and stored at −20° C. before analysis. The blood collection to centrifugation process was performed under ice bath conditions. Two hours after administration, feeding was resumed.
Determination of plasma concentrations in SD rats after intragastric administration of different concentrations of test compounds: 20 μL of SD rat plasma at each time point post-dose was mixed with 50 μL of an internal standard solution (internal standard for the compound of Example 16: 100 ng/mL verapamil; internal standard for compound MYK-461: 100 ng(mL camptothecin) and 200 μL of acetonitrile; the mixture was vortexed for 5 min and centrifuged at 3700 rpm for 10 min, and 1 μL of the supernatant was taken for LC/MS/MS analysis.

[1] = both sexes, SD, rat, plasma, po, 5 mg/kg, repeated intragastric 5 mg/kg
[2] = both sexes, SD, rat, plasma, po, 15 mg/kg, repeated intragastric 15 mg/kg

Q: With `Cc1ccc(F)c([C@H](C)Nc2nc(=O)n(C3CCOCC3)c(=O)[nH]2)c1` [Example 16, (S)-6-((1-(2-Fluoro-5-methylphenyl)ethyl)amino)-3-(tetrahydro-2H-pyran-4-yl)-1,3,5-triazine-2,4(1H,3H)-dione] as the compound, how does the “accumulation after 14 days of repeated intragastric administration (in words)” value read?
A: did not show significant accumulation

Q: And the Vd/F at 1 day (both sexes, SD, rat, plasma, po, 5 mg/kg, repeated intragastric 5 mg/kg, Day 1, read-out: Apparent volume of distribution Vz/F)?
A: 1.27 L/kg

Q: What about the AUC (both sexes, SD, rat, plasma, po, 5 mg/kg, repeated intragastric 5 mg/kg, Day 1, read-out: Area under curve AUC) of the same compound?
A: 30000 ng·h/mL

Q: And the CL/F at 1 day (both sexes, SD, rat, plasma, po, 5 mg/kg, repeated intragastric 5 mg/kg, Day 1, read-out: Clearance CL/F)?
A: 3.06 mL/min/kg

Q: What about the half-life at 1 day [1] of the same compound?
A: 4.8 h

Q: And the Cmax at 1 day [1]?
A: 5740 ng/mL

Q: What about the MRT at 1 day [1] of the same compound?
A: 5 h

Q: What about the Vd/F at 7 day (both sexes, SD, rat, plasma, po, 5 mg/kg, repeated intragastric 5 mg/kg, Day 7, read-out: Apparent volume of distribution Vz/F) of the same compound?
A: 1.28 L/kg

Q: And the AUC at 7 day (both sexes, SD, rat, plasma, po, 5 mg/kg, repeated intragastric 5 mg/kg, Day 7, read-out: Area under curve AUC)?
A: 28100 ng·h/mL

Q: What about the CL/F at 7 day (both sexes, SD, rat, plasma, po, 5 mg/kg, repeated intragastric 5 mg/kg, Day 7, read-out: Clearance CL/F) of the same compound?
A: 2.99 mL/min/kg

Q: What about the half-life at 7 day (both sexes, SD, rat, plasma, po, 5 mg/kg, repeated intragastric 5 mg/kg, Day 7, read-out: Half-life T1/2 (converted)) of the same compound?
A: 4.9 h

Q: What about the Cmax at 7 day (both sexes, SD, rat, plasma, po, 5 mg/kg, repeated intragastric 5 mg/kg, Day 7, read-out: Plasma concentration Cmax) of the same compound?
A: 4470 ng/mL

Q: What about the MRT at 7 day (both sexes, SD, rat, plasma, po, 5 mg/kg, repeated intragastric 5 mg/kg, Day 7, read-out: Residence time MRT) of the same compound?
A: 6 h

Q: What about the Vd/F at 14 day (both sexes, SD, rat, plasma, po, 5 mg/kg, repeated intragastric 5 mg/kg, Day 14, read-out: Apparent volume of distribution Vz/F) of the same compound?
A: 1.24 L/kg

Q: And the AUC at 14 day (both sexes, SD, rat, plasma, po, 5 mg/kg, repeated intragastric 5 mg/kg, Day 14, read-out: Area under curve AUC)?
A: 29800 ng·h/mL

Q: And the CL/F at 14 day (both sexes, SD, rat, plasma, po, 5 mg/kg, repeated intragastric 5 mg/kg, Day 14, read-out: Clearance CL/F)?
A: 2.8 mL/min/kg

Q: And the half-life at 14 day (both sexes, SD, rat, plasma, po, 5 mg/kg, repeated intragastric 5 mg/kg, Day 14, read-out: Half-life T1/2 (converted))?
A: 5.1 h

Q: What about the Cmax at 14 day (both sexes, SD, rat, plasma, po, 5 mg/kg, repeated intragastric 5 mg/kg, Day 14, read-out: Plasma concentration Cmax) of the same compound?
A: 4860 ng/mL

Q: And the MRT at 14 day (both sexes, SD, rat, plasma, po, 5 mg/kg, repeated intragastric 5 mg/kg, Day 14, read-out: Residence time MRT)?
A: 6.2 h

Q: What about the Vd/F (both sexes, SD, rat, plasma, po, 15 mg/kg, repeated intragastric 15 mg/kg, Day 1, read-out: Apparent volume of distribution Vz/F) of the same compound?
A: 1.37 L/kg

Q: What about the AUC at 1 day (both sexes, SD, rat, plasma, po, 15 mg/kg, repeated intragastric 15 mg/kg, Day 1, read-out: Area under curve AUC) of the same compound?
A: 80400 ng·h/mL

Q: What about the CL/F (both sexes, SD, rat, plasma, po, 15 mg/kg, repeated intragastric 15 mg/kg, Day 1, read-out: Clearance CL/F) of the same compound?
A: 3.08 mL/min/kg

Q: What about the half-life at 1 day [2] of the same compound?
A: 5.1 h

Q: And the Cmax at 1 day [2]?
A: 16100 ng/mL

Q: And the MRT at 1 day [2]?
A: 5.4 h

Q: What about the Vd/F (both sexes, SD, rat, plasma, po, 15 mg/kg, repeated intragastric 15 mg/kg, Day 7, read-out: Apparent volume of distribution Vz/F) of the same compound?
A: 2.13 L/kg

Q: And the AUC (both sexes, SD, rat, plasma, po, 15 mg/kg, repeated intragastric 15 mg/kg, Day 7, read-out: Area under curve AUC)?
A: 70900 ng·h/mL

Q: And the CL/F (both sexes, SD, rat, plasma, po, 15 mg/kg, repeated intragastric 15 mg/kg, Day 7, read-out: Clearance CL/F)?
A: 3.58 mL/min/kg

Q: What about the half-life (both sexes, SD, rat, plasma, po, 15 mg/kg, repeated intragastric 15 mg/kg, Day 7, read-out: Half-life T1/2 (converted)) of the same compound?
A: 6.5 h

Q: And the Cmax (both sexes, SD, rat, plasma, po, 15 mg/kg, repeated intragastric 15 mg/kg, Day 7, read-out: Plasma concentration Cmax)?
A: 16800 ng/mL

Q: What about the MRT (both sexes, SD, rat, plasma, po, 15 mg/kg, repeated intragastric 15 mg/kg, Day 7, read-out: Residence time MRT) of the same compound?
A: 6.7 h

Q: And the Vd/F (both sexes, SD, rat, plasma, po, 15 mg/kg, repeated intragastric 15 mg/kg, Day 14, read-out: Apparent volume of distribution Vz/F)?
A: 1.45 L/kg

Q: And the AUC (both sexes, SD, rat, plasma, po, 15 mg/kg, repeated intragastric 15 mg/kg, Day 14, read-out: Area under curve AUC)?
A: 82900 ng·h/mL

Q: And the CL/F (both sexes, SD, rat, plasma, po, 15 mg/kg, repeated intragastric 15 mg/kg, Day 14, read-out: Clearance CL/F)?
A: 2.98 mL/min/kg
